C(#Cc1ccc(O[C@@H]2CN3CCC2CC3)nn1)c1ccccc1.O=C(O)/C=C/C(=O)O
melting point: 154.5 to 159.4 °C

C(#Cc1ccc(O[C@H]2CN3CCC2CC3)nn1)c1ccccc1.O=C(O)/C=C/C(=O)O
melting point: 151.3 to 157.3 °C

Reference: patent US20100227869A1, “ENANTIOPURE QUINUCLIDINYLOXY PYRIDAZINES AND THEIR USE AS NICOTINIC ACETYLCHOLINE RECEPTOR LIGANDS” (priority 2006, published 2010)
